Data: ChEMBL document CHEMBL1201862, “PubChem BioAssay data set” (2004)
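96-well plates; 48 h exposure; 5 concentrations. Endpoints by linear interpolation between flanking doses. Not reached: highest tested concentration assigned. GI50 is the concentration that inhibits growth by half.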 The source made the active and inactive calls. Rule as the data show it: active = GI50 up to about 1.1 µM and inactive = higher.

How the values were obtained:
Experiment in all cases: inhibition of tumour cell growth, NCI panel, 48 h
SNB-19 = system: SNB-19
SN12C = system: SN12C
HCC 2998 = system: HCC 2998
KM-20L2 = system: KM-20L2
EKVX = system: EKVX
OVCAR-5 = system: OVCAR-5
SF-268 = system: SF-268
UACC-62 = system: UACC-62
DLD-1 = system: DLD-1
HL-60 = system: HL-60
TK-10 = system: TK-10
A498 = system: A498
NCI-H226 = system: NCI-H226
HCT-116 = system: HCT-116
SNB-75 = system: SNB-75
KM12 = system: KM12
RXF 393 = system: RXF 393
OVCAR-8 = system: OVCAR-8
SK-MEL-28 = system: SK-MEL-28
HOP-62 = system: HOP-62
OVCAR-4 = system: OVCAR-4
HT-29 = system: HT-29
IGROV-1 = system: IGROV-1
HOP-18 = system: HOP-18
SW-620 = system: SW-620
ACHN = system: ACHN
A549 = system: A549
U-251 = system: U-251
CAKI-1 = system: CAKI-1
XF498 = system: XF498
RXF 631 = system: RXF 631
786-0 = system: 786-0
NCI-H23 = system: NCI-H23
M19-MEL = system: M19-MEL
DMS-114 = system: DMS-114
OVCAR-3 = system: OVCAR-3
SR = system: SR
SNB-78 = system: SNB-78
SF-539 = system: SF-539
SK-MEL-2 = system: SK-MEL-2
UO-31 = system: UO-31
MOLT-4 = system: MOLT-4
COLO 205 = system: COLO 205
Malme-3M = system: Malme-3M
K562 = system: K562
LOX IMVI = system: LOX IMVI
UACC-257 = system: UACC-257
SK-MEL-5 = system: SK-MEL-5
RPMI-8226 = system: RPMI-8226
SK-OV-3 = system: SK-OV-3
HCT-15 = system: HCT-15
M14 = system: M14
NCI-H460 = system: NCI-H460
LXFL 529 = system: LXFL 529
SF-295 = system: SF-295
CCRF-CEM = system: CCRF-CEM
DMS-273 = system: DMS-273
NCI-H522 = system: NCI-H522
HOP-92 = system: HOP-92

`O=C(NCO)NCOCn1c(=O)n(CO)c(=O)n(CO)c1=O` was tested, and the GI50 (SNB-19) was > 31.6 µM (inactive), the GI50 (SN12C) was > 60.7 µM (inactive) and the GI50 (HCC 2998) was > 100 µM (inactive). For the same compound, the GI50 (KM-20L2) was 38.6 µM (inactive), the GI50 (EKVX) was > 100 µM (inactive) and the GI50 (OVCAR-5) was > 100 µM (inactive). For the same compound, the GI50 (SF-268) was 31.3 µM (inactive), the GI50 (UACC-62) was 19.1 µM (inactive) and the GI50 (DLD-1) was 24.9 µM (inactive). The GI50 (HL-60) was 22.3 µM (inactive), the GI50 (TK-10) was > 100 µM (inactive) and the GI50 (A498) was > 100 µM (inactive). The GI50 (NCI-H226) was > 100 µM (inactive), the GI50 (HCT-116) was 31.6 µM (inactive) and the GI50 (SNB-75) was 35.8 µM (inactive). For the same compound, the GI50 (KM12) was 31 µM (inactive), the GI50 (RXF 393) was 15.2 µM (inactive) and the GI50 (OVCAR-8) was 32.9 µM (inactive). For the same compound, the GI50 (SK-MEL-28) was 22.1 µM (inactive), the GI50 (HOP-62) was > 100 µM (inactive) and the GI50 (OVCAR-4) was 32.1 µM (inactive). The GI50 (HT-29) was 32.6 µM (inactive), the GI50 (IGROV-1) was > 100 µM (inactive) and the GI50 (HOP-18) was > 100 µM (inactive). The GI50 (SW-620) was 21.3 µM (inactive), the GI50 (ACHN) was 49.1 µM (inactive) and the GI50 (A549) was 66.7 µM (inactive). The GI50 (U-251) was > 60.8 µM (inactive), the GI50 (CAKI-1) was 40.6 µM (inactive) and the GI50 (XF498) was 23.2 µM (inactive). For the same compound, the GI50 (RXF 631) was > 61.7 µM (inactive), the GI50 (786-0) was 34.6 µM (inactive) and the GI50 (NCI-H23) was 19.8 µM (inactive). For the same compound, the GI50 (M19-MEL) was 32.4 µM (inactive), the GI50 (DMS-114) was 34.4 µM (inactive) and the GI50 (OVCAR-3) was 84.1 µM (inactive). For the same compound, the GI50 (SR) was 29.2 µM (inactive), the GI50 (SNB-78) was 28.4 µM (inactive) and the GI50 (SF-539) was > 100 µM (inactive). The GI50 (SK-MEL-2) was 17.9 µM (inactive), the GI50 (UO-31) was > 100 µM (inactive) and the GI50 (MOLT-4) was 23.4 µM (inactive). The GI50 (COLO 205) was 27.4 µM (inactive), the GI50 (Malme-3M) was 31.5 µM (inactive) and the GI50 (K562) was 32.1 µM (inactive). For the same compound, the GI50 (LOX IMVI) was 19 µM (inactive), the GI50 (UACC-257) was 49.9 µM (inactive) and the GI50 (SK-MEL-5) was 41.5 µM (inactive). The GI50 (RPMI-8226) was 25.4 µM (inactive), the GI50 (SK-OV-3) was 99.8 µM (inactive) and the GI50 (HCT-15) was 23.8 µM. The GI50 (M14) was 17.1 µM (inactive), the GI50 (NCI-H460) was 33.1 µM (inactive) and the GI50 (LXFL 529) was 20 µM (inactive). The GI50 (SF-295) was > 91 µM (inactive) and the GI50 (CCRF-CEM) was 14.4 µM (inactive).
With `O=C1NC2CCC(C2)C1c1ccccc1` (centres undefined) the GI50 (SNB-19) was > 100 µM (inactive), the GI50 (SN12C) was > 100 µM (inactive) and the GI50 (HCC 2998) was > 100 µM (inactive). For the same compound, the GI50 (EKVX) was > 100 µM (inactive), the GI50 (OVCAR-5) was > 100 µM (inactive) and the GI50 (SF-268) was > 100 µM (inactive). For the same compound, the GI50 (UACC-62) was > 100 µM (inactive), the GI50 (DLD-1) was > 100 µM (inactive) and the GI50 (HL-60) was > 100 µM (inactive). For the same compound, the GI50 (TK-10) was > 100 µM (inactive), the GI50 (A498) was > 100 µM (inactive) and the GI50 (NCI-H226) was > 100 µM (inactive). For the same compound, the GI50 (SNB-75) was > 100 µM (inactive), the GI50 (KM12) was > 100 µM (inactive) and the GI50 (RXF 393) was > 100 µM (inactive). For the same compound, the GI50 (OVCAR-8) was > 100 µM (inactive), the GI50 (SK-MEL-28) was > 100 µM (inactive) and the GI50 (OVCAR-4) was > 100 µM (inactive). For the same compound, the GI50 (HT-29) was > 100 µM (inactive), the GI50 (IGROV-1) was > 100 µM (inactive) and the GI50 (HOP-18) was > 100 µM (inactive). For the same compound, the GI50 (SW-620) was > 100 µM (inactive), the GI50 (ACHN) was > 100 µM (inactive) and the GI50 (A549) was > 100 µM (inactive). The GI50 (U-251) was > 100 µM (inactive), the GI50 (RXF 631) was > 100 µM (inactive) and the GI50 (786-0) was > 100 µM (inactive). The GI50 (NCI-H23) was > 100 µM (inactive), the GI50 (M19-MEL) was > 100 µM (inactive) and the GI50 (DMS-114) was > 100 µM (inactive). The GI50 (OVCAR-3) was > 100 µM (inactive), the GI50 (SR) was > 100 µM (inactive) and the GI50 (SNB-78) was > 100 µM (inactive). For the same compound, the GI50 (SF-539) was > 100 µM (inactive), the GI50 (UO-31) was > 100 µM (inactive) and the GI50 (MOLT-4) was > 100 µM (inactive). The GI50 (COLO 205) was > 100 µM (inactive), the GI50 (Malme-3M) was > 100 µM (inactive) and the GI50 (K562) was > 100 µM (inactive). For the same compound, the GI50 (LOX IMVI) was > 100 µM (inactive), the GI50 (SK-MEL-5) was > 100 µM (inactive) and the GI50 (RPMI-8226) was > 100 µM (inactive). For the same compound, the GI50 (SK-OV-3) was > 100 µM (inactive), the GI50 (M14) was > 100 µM (inactive) and the GI50 (NCI-H460) was > 100 µM (inactive). For the same compound, the GI50 (LXFL 529) was > 100 µM (inactive), the GI50 (SF-295) was > 100 µM (inactive) and the GI50 (DMS-273) was > 100 µM (inactive). The GI50 (CCRF-CEM) was > 100 µM (inactive).
`O=C(O)[C@H](NS(=O)(=O)c1ccc2ccccc2c1)c1ccccc1` was tested, and the GI50 (SNB-19) was > 100 µM (inactive), the GI50 (SN12C) was > 100 µM (inactive) and the GI50 (HCC 2998) was > 100 µM (inactive). The GI50 (KM-20L2) was > 100 µM (inactive), the GI50 (OVCAR-5) was > 100 µM (inactive) and the GI50 (NCI-H522) was > 100 µM (inactive). For the same compound, the GI50 (SF-268) was > 100 µM (inactive), the GI50 (UACC-62) was > 100 µM (inactive) and the GI50 (DLD-1) was > 100 µM (inactive). The GI50 (HL-60) was > 100 µM (inactive), the GI50 (A498) was > 100 µM (inactive) and the GI50 (SNB-75) was > 100 µM (inactive). For the same compound, the GI50 (RXF 393) was 20.6 µM (inactive), the GI50 (SK-MEL-28) was > 100 µM (inactive) and the GI50 (OVCAR-4) was > 100 µM (inactive). The GI50 (HT-29) was > 100 µM (inactive), the GI50 (IGROV-1) was > 100 µM (inactive) and the GI50 (HOP-18) was > 100 µM (inactive). For the same compound, the GI50 (ACHN) was > 100 µM (inactive), the GI50 (U-251) was > 100 µM (inactive) and the GI50 (CAKI-1) was > 100 µM (inactive). For the same compound, the GI50 (XF498) was 99.3 µM (inactive), the GI50 (RXF 631) was > 100 µM (inactive) and the GI50 (786-0) was > 100 µM (inactive). For the same compound, the GI50 (NCI-H23) was > 100 µM (inactive), the GI50 (M19-MEL) was > 100 µM (inactive) and the GI50 (SF-539) was > 100 µM (inactive). The GI50 (SK-MEL-2) was > 100 µM (inactive), the GI50 (UO-31) was > 100 µM (inactive) and the GI50 (MOLT-4) was > 100 µM (inactive). The GI50 (COLO 205) was > 100 µM (inactive), the GI50 (Malme-3M) was > 100 µM (inactive) and the GI50 (K562) was > 100 µM (inactive). For the same compound, the GI50 (LOX IMVI) was > 100 µM (inactive), the GI50 (UACC-257) was > 100 µM (inactive) and the GI50 (RPMI-8226) was > 100 µM (inactive). The GI50 (SK-OV-3) was > 100 µM (inactive), the GI50 (HCT-15) was > 100 µM and the GI50 (M14) was > 100 µM (inactive). For the same compound, the GI50 (NCI-H460) was > 100 µM (inactive), the GI50 (LXFL 529) was > 100 µM (inactive) and the GI50 (HOP-92) was 45.3 µM (inactive). The GI50 (DMS-273) was > 100 µM (inactive) and the GI50 (CCRF-CEM) was > 100 µM (inactive).
